Values quoted from earlier work as cited in patent US20080139510A1, “Treatment of migraine headaches with sublingual amino acids” (priority 2006, published 2008).

Test system: migraine attack
Conditions: oral administration, tablet or capsule

N[C@@H](Cc1c[nH]c2ccc(O)cc12)C(=O)O [5-HTP, 5-hydroxytryptophan]
aborting or significantly mitigating pain after onset of migraine attack: ineffective
